Assay results from patent US10149472B2, “Chitin oligomers for use in promoting non-leguminous plant growth and development” (Wisconsin Alumni Research Foundation, priority 2015, dated 2018).

Test system: rice trichoblasts (root hair cells)
Experiment: Calcium spiking (YC3.6 imaging) in rice trichoblasts (root hair cells)
Assay type: cell-based, Oryza sativa cv Nipponbare
Conditions: 10^−5 M, FIG. 5, FIG. 6
Protocol: Mycorrhizal induced calcium responses were measured as described previously (14). Transgenic Oryza sativa Nipponbare lines carrying Yellow Cameleon 3.6 (YC3.6) FRET-based calcium sensor was used to detect calcium spiking. YC3.6 was imaged on a Nikon Eclipse Ti inverted microscope (Nikon, Japan) equipped with an OptoLED Illuminator (model OptoLED, Cairn Research Ltd, UK). YC3.6 was excited at a wavelength of 455 nm using a royal blue LED and was captured with a charge-coupled device (CCD) camera (model RETIGA-SRV, Qimaging, Canada). Emitted fluorescence was separated by an image splitter with a dichroic mirror (model Optosplit II, Cairn Research Ltd, UK) and then passed through a fluorescence filter set. Images were collected every 5 seconds with 1-second exposure and analyzed using MetaFluor (Molecular Devices, Sunnyvale, Calif., USA).
Both LCOs and COs are Required to Induce Calcium Spiking in Trichoblasts. Rhizobia colonize legumes by root hair cells (trichoblasts), whereas AM fungi colonize roots via non-root hair epidermal cells (atrichoblasts). Thus, these different root epidermal cell types may respond differently to COs and LCOs. To test this, we directly compared trichoblast and atrichoblast responses using high concentrations of CO4 in rice. Calcium oscillations observed in rice following treatments of CO4 were restricted to atrichoblasts, with no responses in trichoblasts even with CO4 treatments of 10^−5 M (FIG. 5). This preferential nature of rice atrichoblasts to respond to the AM signals is consistent with a preference for AM fungi to colonize the root via atrichoblasts (26). It is possible that either AM fungi produce signalling molecules other than S-LCO, NS-LCO and CO4 that induce calcium oscillations in rice trichoblasts, or that the mix of signalling molecules is important. To test this, we assessed induction of calcium oscillations by an equimolar mix of 10^−5 M S-LCO, NS-LCO, and CO4.

## CC(=O)N[C@H]1[C@H](O[C@H]2[C@H](O)[C@@H](NC(C)=O)C(O)O[C@@H]2CO)O[C@H](CO)[C@@H](O[C@@H]2O[C@H](CO)[C@@H](O[C@@H]3O[C@H](CO)[C@@H](O)[C@H](O)[C@H]3NC(C)=O)[C@H](O)[C@H]2NC(C)=O)[C@@H]1O (stereo partly shown) [CO4, tetra-N-acetylchitotetraose]
  calcium spiking in trichoblasts: no responses
